Data set [1] deals with T1, Phosphodiesterase-5 enzyme (PDE 5) (Homo sapiens, UniProt O76074).
T1 construct: separated by HPLC (Mono Q anion exchange column) with concentration gradient of 0-500 mM NaCl to elute PDE isozymes; from tissue; host or cells: human corpus cavernosal tissue
The experiment in a line: Test for phosphodiesterase-5 (PDE 5) activity. The format is biochemical. Conditions: PDE 5 fraction from human corpus cavernosal tissues.

Data set [2] concerns rats. Briefly: Penile erection test using rats. It is filed as in vivo, rat. Conditions: oral single dose 10 mg/kg in 0.5% methyl cellulose, observed for 2 hours.
The target in data set [3] is T2, Phosphodiesterase-3 enzyme (PDE 3) (Oryctolagus cuniculus, UniProt G1ST54).
T2 construct: The supernatant was separated by DEAE-cellulose column chromatography (Whatman DE52 bead); from tissue; host or cells: rabbit platelets
T2 sequence (G1ST54 1-1128): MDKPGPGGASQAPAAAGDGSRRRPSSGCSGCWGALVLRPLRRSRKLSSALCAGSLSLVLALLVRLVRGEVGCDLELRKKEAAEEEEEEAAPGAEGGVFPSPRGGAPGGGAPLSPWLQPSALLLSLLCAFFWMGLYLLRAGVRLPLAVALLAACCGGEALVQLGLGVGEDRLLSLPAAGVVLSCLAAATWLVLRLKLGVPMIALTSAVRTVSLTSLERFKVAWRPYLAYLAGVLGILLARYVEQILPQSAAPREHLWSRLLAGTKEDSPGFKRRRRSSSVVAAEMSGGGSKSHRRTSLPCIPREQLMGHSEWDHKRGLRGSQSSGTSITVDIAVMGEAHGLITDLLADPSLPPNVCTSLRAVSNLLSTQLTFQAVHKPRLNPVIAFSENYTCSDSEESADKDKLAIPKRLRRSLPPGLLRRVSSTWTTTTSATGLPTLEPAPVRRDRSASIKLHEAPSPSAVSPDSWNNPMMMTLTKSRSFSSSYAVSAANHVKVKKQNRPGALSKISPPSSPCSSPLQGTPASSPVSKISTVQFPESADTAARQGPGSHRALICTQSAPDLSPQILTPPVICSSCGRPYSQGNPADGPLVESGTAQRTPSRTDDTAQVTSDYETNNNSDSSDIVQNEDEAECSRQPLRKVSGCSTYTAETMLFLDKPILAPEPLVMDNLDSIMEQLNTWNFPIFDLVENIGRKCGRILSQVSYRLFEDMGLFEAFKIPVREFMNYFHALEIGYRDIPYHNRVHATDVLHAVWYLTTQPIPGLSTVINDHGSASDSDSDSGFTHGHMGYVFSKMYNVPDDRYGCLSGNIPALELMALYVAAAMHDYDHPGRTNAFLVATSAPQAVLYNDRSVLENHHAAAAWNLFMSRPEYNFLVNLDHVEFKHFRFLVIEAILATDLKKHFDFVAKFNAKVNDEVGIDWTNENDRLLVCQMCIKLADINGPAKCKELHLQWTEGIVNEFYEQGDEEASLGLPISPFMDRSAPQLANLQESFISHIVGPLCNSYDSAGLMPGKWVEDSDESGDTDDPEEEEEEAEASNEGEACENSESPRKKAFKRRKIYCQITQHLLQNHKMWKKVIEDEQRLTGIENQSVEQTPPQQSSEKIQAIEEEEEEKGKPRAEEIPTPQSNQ
Briefly: Test for phosphodiesterase-3 (PDE 3) activity. The format is biochemical. The note with it: PDE 3 fraction from platelets of a rabbit. On the procedure:
Phosphodiesterase-3 enzyme (PDE 3) was separated from platelets of a rabbit. About 60 ml of blood was collected from a puncture of the abdominal artery of a rabbit in heparinized syringes. Platelet-rich plasma was harvested by centrifugation for 5 min at 450×g and further centrifuged for 15 min at 1,200×g to precipitate the platelets. The platelets were resuspended in homogenizing buffer (50 mM Tris-HCl, 1 mM MgCl2, pH 7.4), homogenized at 4° C. and ultrasonicated (30 sec/ml). The homogenized solution was centrifuged (105,000×g) for 1 hr at 4° C. to obtain the supernatant in which PDE was dissolved. The supernatant was separated by DEAE-cellulose column chromatography (Whatman DE52 bead) by using eluent (50 mM Tris-HCl, 3.75mM2-mercaptoethanol, pH 6.0) with concentration gradient of 0-1 M sodium acetate to elute PDE isozymes. The PDE activity was measured on the each column fraction by the following process to separate PDE 3 fraction and the inhibition for PDE 3 of the compounds of formula 1 was measured by using the fraction.
To 1.5 ml tube containing 100 ul of reaction mixture (15 mM Tris-HCl, 5 mM MgCl2, 0.5 mg/ml BSA, pH 7.4) were added appropriate amount of PDE 3 fraction and PDE inhibitor and the solution was mixed well. After [^3H]-cAMP or [^3H]-cGMP (500 nM, 2 uCi/ml) was added, the mixture was reacted in incubator of 30° C. for about 1 hour and the reaction was quenched by putting the tube into boiling water for about 45 seconds to 2 min. The tube was chilled in ice bath for about 5 min. To this tube was added snake venom (1 mg/ml, 100 ul) or 5′-nucleotidase (0.1 unit/tube) and the mixture was reacted in incubator of 37° C. for 10 min and chilled in ice bath. 3 times volume of methanol to the resin was added to the anion exchange resin (Bio-Rad resin, AG1-X2, 200-400 mesh) which had been already washed with 0.5 N HCl, H2O, 0.5 N NaOH, H2O, 0.5 N HCl and H2O in order and adjusted to pH 5. Then 1 ml of the pretreated resin was added to the each tube with vortexing. The mixture was left at 4° C. for 15 min with occasional vortexing and centrifuged (10,000 rpm) for about 5 min to sediment the resin. The supernatant (700 ul) was transferred to a liquid scintillation vial, and mixed with 10 ml of scintillation cocktail. After stabilizing the mixture by leaving it overnight, the radioactivity of the tube was measured by β-counter.

A short description of data set [4]: Acute oral toxicity test in rats. Conditions: SD, rat, in vivo, 1 g/kg; rats, oral single dose; read-out: lethal dose (LD50) of oral administration.

These results are taken from patent US6583147B1, “Pyrazolopyrimidinone derivatives for the treatment of impotence” (Dong A Pharm Co., Ltd., priority 1998, dated 2003).

Where only a bound is given, the exact number is not on record here.

One may read the IC50 as the concentration needed to halve the response being measured. A high value points to a need for much substance. With `CCCOc1ccc(S(=O)(=O)NCC2CCN(CC)C2)cc1-c1nc2c(CCC)nn(C)c2c(=O)[nH]1` (stereo not shown) [Example 64, 5-[2-propyloxy-5-(1-ethyl-3-pyrrolidinylmethylamidosulfonyl)phenyl]-1-methyl-3-propyl-1,6-dihydro-7H-pyrazolo(4,3-d)pyrimidin-7-one], the concentration for half-maximal inhibition (IC50) in data set [1] is 30.7 nM; in data set [3], 134000 nM. Also, in data set [2], the “PEI (penile erection index)” value stood at 175.0 ± 95.7. In addition, the “genital grooming (number of genital groomings)” value (from here on “genital grooming”) in data set [2] is 2.8 ± 0.5. In addition, the LD50 in data set [4] was > 1000 mg/kg.
For `CCCc1nn(CC)c2c(=O)[nH]c(-c3cc(S(=O)(=O)Nc4ccc(F)cc4)ccc3OCC)nc12` [Example 33, 5-[2-ethoxy-5-(4-fluorophenylamidosulfonyl)phenyl]-1-ethyl-3-propyl-1,6-dihydro-7H-pyrazolo(4,3-d)pyrimidin-7-one], in that order: 19.7 nM, 188000 nM, 233.3 ± 57.7, 2.7 ± 0.6 and > 1000 mg/kg.
Regarding `CCCc1nn(C)c2c(=O)[nH]c(-c3cc(S(=O)(=O)Nc4cccnc4)ccc3OCC)nc12` [Example 38, 5-[2-ethoxy-5-(3-pyridylamidosulfonyl)phenyl]-1-methyl-3-propyl-1,6-dihydro-7H-pyrazolo(4,3-d)pyrimidin-7-one], the values for the IC50 in data set [1] and in data set [3] were 8.07 nM and 208000 nM, respectively. The “PEI (penile erection index)” value in data set [2] came to 233.3 ± 230.9. In addition, the “genital grooming” value in data set [2] is 2.7 ± 2.9. Moreover, the LD50 in data set [4] is > 1000 mg/kg.
For `CCOc1ccc(S(=O)(=O)Nc2cccnc2)cc1-c1nc2c(CC(C)C)nn(C)c2c(=O)[nH]1` [Example 41, 5-[2-ethoxy-5-(3-pyridylamidosulfonyl)phenyl]-1-methyl-3-isobutyl-1,6-dihydro-7H-pyrazolo(4,3-d)pyrimidin-7-one], in that order: 2.28 nM, 9930 nM, 177.8 ± 203.7, 1.7 ± 1.5 and > 1000 mg/kg.
For `CCCc1nn(C)c2c(=O)[nH]c(-c3cc(S(=O)(=O)NCc4cccnc4)ccc3OCC)nc12` [Example 47, 5-[2-ethoxy-5-(3-pyridylmethylamidosulfonyl)phenyl]-1-methyl-3-propyl-1,6-dihydro-7H-pyrazolo(4,3-d)pyrimidin-7-one], in that order: 2.78 nM, 20900 nM, 200.0 ± 100.0, 3.0 ± 1.0 and > 1000 mg/kg.
For `CCCc1nn(C)c2c(=O)[nH]c(-c3cc(S(=O)(=O)Nc4ccncc4)ccc3OCC)nc12` [Example 34, 5-[2-ethoxy-5-(4-pyridylamidosulfonyl)phenyl]-1-methyl-3-propyl-1,6-dihydro-7H-pyrazolo(4,3-d)pyrimidin-7-one], in that order: 3.44 nM, 184000 nM, 166.7 ± 57.7, 1.3 ± 0.6 and > 1000 mg/kg.
Take `CCCOc1ccc(S(=O)(=O)NC2CCN(C)C2)cc1-c1nc2c(CCC)nn(C)c2c(=O)[nH]1` (stereo not shown) [Example 53, 5-[2-propyloxy-5-(1-methyl-3-pyrrolidinylamidosulfonyl)phenyl]-1-methyl-3-propyl-1,6-dihydro-7H-pyrazolo(4,3-d)pyrimidin-7-one]: it took 20.9 nM to reach half-maximal inhibition in data set [1] (IC50). In addition, in data set [2], the “PEI (penile erection index)” value came out at 300.0 ± 200.0 and the “genital grooming” value was 2.7 ± 2.1. For the same compound, in data set [3], the IC50 was > 205000 nM. Besides, in data set [4], the LD50 was > 1000 mg/kg.
For `CCCCNS(=O)(=O)c1ccc(OCC)c(-c2nc3c(CCC)nn(C)c3c(=O)[nH]2)c1` [Example 9, 5-[2-ethoxy-5-(butylamidosulfonyl)phenyl]-1-methyl-3-propyl-1,6-dihydro-7H-pyrazolo(4,3-d)pyrimidin-7-one], in that order: 10.7 nM, 200.0 ± 100.0, 4.7 ± 1.2, > 223000 nM and > 1000 mg/kg.
`CCOc1ccc(S(=O)(=O)NCC2CCN(CC)C2)cc1-c1nc2c(CC(C)C)nn(C)c2c(=O)[nH]1` (stereo not shown) [Example 66, 5-[2-ethoxy-5-(1-ethyl-3-pyrrolidinylmethylamidosulfonyl)phenyl]-1-methyl-3-isobutyl-1,6-dihydro-7H-pyrazolo(4,3-d)pyrimidin-7-one] had an IC50 in data set [1] of 35.8 nM. Further, in data set [2], the “PEI (penile erection index)” value came to 175.0 ± 95.7 and the “genital grooming” value worked out at 2.8 ± 0.5. This compound had an IC50 in data set [3] of 90400 nM. In addition, the LD50 in data set [4] is > 1000 mg/kg.
For `CCOc1ccc(S(=O)(=O)NCc2ccccc2)cc1-c1nc2c(CC(C)C)nn(C)c2c(=O)[nH]1` [Example 2, 5-[2-ethoxy-5-(benzylamidosulfonyl)phenyl]-1-methyl-3-isobutyl-1,6-dihydro-7H-pyrazolo(4,3-d)pyrimidin-7-one], in that order: 10.8 nM, 533.3 ± 305.5, 5.7 ± 2.5, > 202000 nM and > 1000 mg/kg.
For `CCCOc1ccc(S(=O)(=O)Nc2cccnc2)cc1-c1nc2c(CCC)nn(C)c2c(=O)[nH]1` [Example 39, 5-[2-propyloxy-5-(3-pyridylamidosulfonyl)phenyl)-1-methyl-3-propyl-1,6-dihydro-7H-pyrazolo(4,3-d)pyrimidin-7-one], in that order: 1.16 nM, 166.7 ± 57.7, 1.3 ± 1.5, 41700 nM and > 1000 mg/kg.
